US7183112B2, “Uses for anti-malarial therapeutic agents” (APT Pharmaceuticals, LLC, priority 1999, dated 2007)
“And” between values parts separate entries of the source, which are not always exact repeats. Identical values can stand only once. “Also recorded” adds a separate entry of the source.

Tested on: Ascaris-sensitized sheep
Assay: Antigen-induced changes in specific lung resistance (early and late responses), Examples 1-2
Format: in vivo
Settings: for Specific resistance, +1 HR % / Specific resistance, +1 HR Srl: 1 h post antigen; for Specific resistance, +2 HRS % / Specific resistance, +2 HRS Srl: 2 h post antigen; for Specific resistance, P-ASC % / Specific resistance, P-ASC Srl: immediately post Ascaris antigen; for Specific resistance, P-pl/dg % (immediate) / Specific resistance, P-pl/dg Srl (immediate): immediately post drug; for Specific resistance, P-pl/dg % (just before Ag) / Specific resistance, P-pl/dg Srl (just before Ag): post drug, just before antigen; for Specific resistance, +3 HRS % / Specific resistance, +3 HRS Srl: 3 h post antigen; for Specific resistance, +4 HRS % / Specific resistance, +4 HRS Srl: 4 h post antigen; for Specific resistance, +5 HRS % / Specific resistance, +5 HRS Srl: 5 h post antigen; for Specific resistance, +7 HRS % / Specific resistance, +7 HRS Srl: 7 h post antigen; for Specific resistance, +7.5 HRS % / Specific resistance, +7.5 HRS Srl: 7.5 h post antigen; for Specific resistance, +8 HRS % / Specific resistance, +8 HRS Srl: 8 h post antigen
Method: All procedures were approved by the Mount Sinai Medical Center Animal Research Committee, which is responsible for assuring the humane care and use of experimental animals.
Measurement of Airway Mechanics: The unsedated sheep were restrained in a cart in the prone position with their heads immobilized. After topical anesthesia of the nasal passages with 2% lidocaine solution, a balloon catheter was advanced through one nostril into the lower esophagus. The animals were […] with a cuffed endotracheal tube through the other nostril using a flexible fiberoptic bronchoscope as a guide. […] Pleural pressure was estimated with the esophageal balloon catheter (filled with one ml of air) which was positioned 5–10 cm from the gastroesophageal junction. […] Once the balloon was placed, it was secured so that it remained in position for the duration of the experiment. Lateral pressure in the trachea was-measured with a sidehole catheter (inner dimension, 2.5 mm) advanced through and positioned distal to the tip of the endotracheal tube. Transpulmonary pressure, the difference between tracheal and pleural pressure, was measured with a differential pressure transducer catheter system. For the measurement of pulmonary resistance (RL), the proximal end of the endotracheal tube was connected to a pneumotachograph (Fleisch No. 1; Dyna Sciences, Inc., Blue Bell, Pa.). […] The mean of at least five breaths, free of swallowing artifact, was used to obtain RL in cm H2O/L/s. Immediately after the measurement of RL, thoracic gas volume (Vtg) was measured in a constant-volume body plethysmograph to obtain specific lung resistance (SRL=RL×Vtg) in L×cm H2O/L/s.
Aerosol Delivery Systems: Aerosols of Ascaris suum extract (diluted 20:1 with phosphate buffered saline; 82,000 PNU/ml) were generated using a disposable medical nebulizer (Raindrop^R, Puritan Bennett), which produces an aerosol with a mass median aerodynamic diameter of 3.2 μm (geometric standard deviation, 1.9) as determined by a 7 stage Andersen cascade impactor. The output from the nebulizer was directed into a plastic T-piece, one end of which was connected to the inspiratory port of a Harvard respirator. […] The aerosol was delivered at a tidal volume of 500 ml and a rate of 20 breaths per minute for 20 minutes. Each sheep was challenged with an equivalent dose of antigen (400 breaths) in the control and drug trials. Carbachol aerosols were also generated with this same nebulizer system.
At 3 to 4 days before treatment was begun, baseline airway responsiveness, to aerosol carbachol (i.e., PC400) was determined and a baseline bronchial biopsy performed. […] The animals were treated two times a day for 3 days and then, on the fourth day, at 0.5 hours before antigen challenge and again at 4 hours after challenge. […] SRL was remeasured 0.5 h after treatment (just before challenge) and the animals were then challenged with antigen. SRL was then remeasured immediately after.
On the fourth day, they received an additional treatment one-half hour prior to antigen challenge.

[1] = Example 1, aerosol 30 mg/animal (0.78 mg/kg) twice a day, Mean
[2] = Example 1, aerosol 30 mg/animal (0.78 mg/kg) twice a day, individual sheep
[3] = Example 2, aerosol 40 mg b.i.d. (2 mg/kg/day)
[4] = Example 2, aerosol 40 mg b.i.d. (2 mg/kg/day), Mean of 2 sheep
[5] = Example 2, aerosol 40 mg b.i.d. (2 mg/kg/day), individual sheep
[6] = Example 2, aerosol 40 mg b.i.d. (2 mg/kg/day), 6 h post antigen, Mean of 2 sheep
[7] = Example 2, aerosol 40 mg b.i.d. (2 mg/kg/day), 6 h post antigen, individual sheep
[8] = Example 2, aerosol 40 mg b.i.d. (2 mg/kg/day), +6 HRS, individual sheep
[9] = inhaled (nebulized), summary of animal studies

CCN(CCO)CCCC(C)Nc1ccnc2cc(Cl)ccc12 (centres unmarked) [HCQ, hydroxychloroquine]
Specific resistance, +1 HR % [1]: 38%
Specific resistance, +1 HR Srl [1]: 1.39 L×cm H2O/L/s
Specific resistance, +1 HR % [2]: 32% and 43% and 30%
Specific resistance, +1 HR Srl [2]: 1.35 L×cm H2O/L/s and 1.49 L×cm H2O/L/s
Specific resistance, +2 HRS % [1]: 42%
Specific resistance, +2 HRS Srl [1]: 1.44 L×cm H2O/L/s
Specific resistance, +2 HRS % [2]: 11% and 74% and 4%
Specific resistance, +2 HRS Srl [2]: 1.13 L×cm H2O/L/s and 1.74 L×cm H2O/L/s and 1.2 L×cm H2O/L/s
Specific resistance, P-ASC % [1]: 95%
Specific resistance, P-ASC Srl [1]: 1.97 L×cm H2O/L/s
Specific resistance, P-ASC % [2]: 140% and 49% and 189%
Specific resistance, P-ASC Srl [2]: 2.45 L×cm H2O/L/s and 1.49 L×cm H2O/L/s and 3.32 L×cm H2O/L/s
Specific resistance, P-pl/dg % (immediate) [1]: 10%
Specific resistance, P-pl/dg Srl (immediate) [1]: 1.11 L×cm H2O/L/s
Specific resistance, P-pl/dg % (immediate) [2]: 18% and 2% and 19%
Specific resistance, P-pl/dg Srl (immediate) [2]: 1.20 L×cm H2O/L/s and 1.02 L×cm H2O/L/s and 1.37 L×cm H2O/L/s
Specific resistance, P-pl/dg % (just before Ag) [1]: 2%
Specific resistance, P-pl/dg Srl (just before Ag) [1]: 1.03 L×cm H2O/L/s
Specific resistance, P-pl/dg % (just before Ag) [2]: 9% and −5% and −2%
Specific resistance, P-pl/dg Srl (just before Ag) [2]: 1.11 L×cm H2O/L/s and 0.95 L×cm H2O/L/s and 1.13 L×cm H2O/L/s
effect on acute reactions [3]: not inhibited
effect on late phase asthmatic reactions [3]: virtually completely blocked
Specific resistance, +1 HR % [4]: 132%
Specific resistance, +1 HR Srl [4]: 2.43 L×cm H2O/L/s
Specific resistance, +1 HR % [5]: 171% and 93%
Specific resistance, +1 HR Srl [5]: 2.76 L×cm H2O/L/s and 2.10 L×cm H2O/L/s
Specific resistance, +2 HRS % [4]: 69%
Specific resistance, +2 HRS Srl [4]: 1.74 L×cm H2O/L/s
Specific resistance, +2 HRS % [5]: 102% and 36%
Specific resistance, +2 HRS Srl [5]: 2.06 L×cm H2O/L/s and 1.48 L×cm H2O/L/s
Specific resistance, +3 HRS % [4]: 50%
Specific resistance, +3 HRS Srl [4]: 1.58 L×cm H2O/L/s
Specific resistance, +3 HRS % [5]: 54% and 46%
Specific resistance, +3 HRS Srl [5]: 1.57 L×cm H2O/L/s and 1.59 L×cm H2O/L/s
Specific resistance, +4 HRS % [4]: 19%
Specific resistance, +4 HRS Srl [4]: 1.26 L×cm H2O/L/s
Specific resistance, +4 HRS % [5]: 10% and 28%
Specific resistance, +4 HRS Srl [5]: 1.12 L×cm H2O/L/s and 1.39 L×cm H2O/L/s
Specific resistance, +5 HRS % [4]: 17%
Specific resistance, +5 HRS Srl [4]: 1.23 L×cm H2O/L/s
Specific resistance, +5 HRS % [5]: 36% and −2%
Specific resistance, +5 HRS Srl [5]: 1.39 L×cm H2O/L/s and 1.07 L×cm H2O/L/s
Specific resistance, +6 HRS % [6]: 18%
Specific resistance, +6 HRS Srl [6]: 1.24 L×cm H2O/L/s
Specific resistance, +6 HRS % [7]: 20% and 16%
Specific resistance, +6 HRS Srl [7]: 1.22 L×cm H2O/L/s and 1.26 L×cm H2O/L/s
Specific resistance, +7 HRS % [4]: 16%
Specific resistance, +7 HRS Srl [4]: 1.23 L×cm H2O/L/s
Specific resistance, +7 HRS % [5]: 20% and 13%
Specific resistance, +7 HRS Srl [5]: 1.22 L×cm H2O/L/s and 1.23 L×cm H2O/L/s
Specific resistance, +7.5 HRS % [4]: 35%
Specific resistance, +7.5 HRS Srl [4]: 1.42 L×cm H2O/L/s
Specific resistance, +7.5 HRS % [5]: 50% and 19%
Specific resistance, +7.5 HRS Srl [5]: 1.53 L×cm H2O/L/s and 1.30 L×cm H2O/L/s
Specific resistance, +8 HRS % [4]: 20%
Specific resistance, +8 HRS Srl [4]: 1.27 L×cm H2O/L/s
Specific resistance, +8 HRS % [5]: 22% and 18%
Specific resistance, +8 HRS Srl [5]: 1.24 L×cm H2O/L/s and 1.29 L×cm H2O/L/s
Specific resistance, +6 HRS Srl (Example 2, aerosol 40 mg b.i.d. (2 mg/kg/day), +6 HRS, Mean of 2 sheep): 1.21 L×cm H2O/L/s
Specific resistance, +6 HRS % [8]: 8% and 21%
Specific resistance, +6 HRS Srl [8]: 1.10 L×cm H2O/L/s and 1.32 L×cm H2O/L/s
Specific resistance, P-ASC % [4]: 238%
Specific resistance, P-ASC Srl [4]: 3.58 L×cm H2O/L/s
Specific resistance, P-ASC % [5]: 196% and 280%
Specific resistance, P-ASC Srl [5]: 3.02 L×cm H2O/L/s and 4.14 L×cm H2O/L/s
Specific resistance, P-pl/dg % (immediate) [4]: 3%
Specific resistance, P-pl/dg Srl (immediate) [4]: 1.08 L×cm H2O/L/s
Specific resistance, P-pl/dg % (immediate) [5]: 13% and −7%
Specific resistance, P-pl/dg Srl (immediate) [5]: 1.15 L×cm H2O/L/s and 1.01 L×cm H2O/L/s
Specific resistance, P-pl/dg % (just before Ag) [4]: 1%
Specific resistance, P-pl/dg Srl (just before Ag) [4]: 1.07 L×cm H2O/L/s
Specific resistance, P-pl/dg % (just before Ag) [5]: −6% and 7%%
Specific resistance, P-pl/dg Srl (just before Ag) [5]: 0.96 L×cm H2O/L/s and 1.17 L×cm H2O/L/s
Specific resistance, +6 HRS % (Example 2, aerosol 40 mg b.i.d. (2 mg/kg/day), second +6 HRS column (text: at 6.5 hours), Mean of 2 sheep): 14%
irritant effects / tolerability of aerosolized HCQ (airway resistance after inhalation) (aerosol, sheep, specific resistance pre- and immediately following application): well tolerated; also recorded: does not cause any major irritant effects
effect on immediate allergic-mediated bronchostrictive responses [9]: partially blocks
effect on late-phase responses (four to 12 hours post-antigen challenge) [9]: virtually eliminates
